This passage reports IC50 results from patent US20220220373A1, “FLUORESCENT PROBES FOR MONOACYLGLYCEROL LIPASE (MAGL)” (Hoffmann-La Roche Inc., priority 2019, published 2022).

Broadly, the IC50 is the concentration that gives 50% inhibition. Lower therefore signals inhibition by little substance.

For the assay, the target named is T1, MAGL (Homo sapiens, UniProt Q99685).
T1 sequence (Q99685 1-303): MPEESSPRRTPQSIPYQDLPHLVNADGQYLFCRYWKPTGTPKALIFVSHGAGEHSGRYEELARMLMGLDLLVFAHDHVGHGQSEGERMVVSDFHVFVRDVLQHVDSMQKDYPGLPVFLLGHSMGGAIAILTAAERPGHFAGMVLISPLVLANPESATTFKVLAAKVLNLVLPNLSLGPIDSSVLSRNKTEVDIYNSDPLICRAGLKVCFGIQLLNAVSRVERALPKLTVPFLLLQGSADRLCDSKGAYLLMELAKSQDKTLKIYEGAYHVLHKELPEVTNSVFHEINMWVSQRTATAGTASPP
Kind of assay: 2-AG assay (MAGL inhibitory activity, hydrolysis of 2-arachidonoylglycerol followed by mass spectrometry). The assay is classed as biochemical. As to conditions: 50 pM MAGL, 8 μM 2-arachidonoylglycerol, 15 min pre-incubation, 30 min incubation at RT. As for the experimental part: Compounds were profiled for MAGL inhibitory activity by determining the enzymatic activity by following the hydrolysis of the natural substrate 2-arachidonoylglycerol (2-AG) resulting in arachidonic acid, which can be followed by mass spectrometry. This assay is hereinafter abbreviated “2-AG assay”.
The 2-AG assay was carried out in 384 well assay plates (PP, Greiner Cat#784201) in a total volume of 20 μL. Compound dilutions were made in 100% DMSO (VWR Chemicals 23500.297) in a polypropylene plate in 3-fold dilution steps to give a final concentration range in the assay from 12.5 μM to 0.8 pM. […] compound dilutions (100% DMSO) were added to 9 μL MAGL in assay buffer (50 mM TRIS (GIBCO, 15567-027), 1 mM EDTA (Fluka, 03690-100 mL), 0.01% (v/v) Tween. After shaking, the plate was incubated for 15 min at RT. To start the reaction, 10 μL 2-arachidonoylglycerol in assay buffer was added. The final concentrations in the assay was 50 pM MAGL and 8 μM 2-arachidonoylglyerol. After shaking and 30 min incubation at RT, the reaction was quenched by the addition of […] of ACN containing 4 μM of d8-arachidonic acid. The amount of arachidonic acid was traced by an online SPE system (Agilent Rapidfire) coupled to a triple quadrupole mass spectrometer (Agilent 6460). A C18 SPE cartridge (G9205A) was used in an ACN/water liquid setup. The mass spectrometer was operated in negative electrospray mode following the mass transitions 303.1→259.1 for arachidonic acid and 311.1→267.0 for d8-arachidonic acid. The activity of the compounds was calculated based on the ratio of intensities [arachidonic acid/d8-arachidonic acid].
Consider `O=C(CCOCCNc1ccc([N+](=O)[O-])c2nonc12)NCCOc1cccc(C(c2ccccc2)C2CCN(C(=O)N3CCC4OCC(=O)NC4C3)CC2)c1` (single isomer, unassigned) [Example 17, N-[2-[3-[(S or R)-11-1(4aR,8aS)-3-Oxo-4,4a,5,7,8,8a-hexahydropyrido[4,3-b][1,4]oxazine-6-carbonyl]-4-piperidyl]-phenyl-methyl]phenoxy]ethyl]-3-[2-[(4-nitro-2,1,3-benzoxadiazol-7-yl)amino]ethoxy]propanamide], for which the IC50 was 0.7 nM.
Then `CC(C)(C)OC(=O)NCCOCCC(=O)NCCOc1cccc([C@@H](c2ccccc2)C2CCN(C(=O)N3CC[C@@H]4OCC(=O)N[C@@H]4C3)CC2)c1` (single isomer, unassigned) [Example 15, tert-Butyl N-[2-[3-[2-[3-[(R or S)-[1-1(4aR,8aS)-3-oxo-4,4a,5,7,8,8a-hexahydropyrido[4,3-b][1,4]oxazine-6-carbonyl]-4-piperidyl]-phenyl-methyl]phenoxy]ethylamino]-3-oxo-propoxy]ethyl]carbamate], with 3.2 nM; and `O=C(CCOCCOCCOCCNc1ccc([N+](=O)[O-])c2nonc12)NCCOc1cccc(C(c2ccccc2)C2CCN(C(=O)N3CC[C@@H]4OCC(=O)N[C@@H]4C3)CC2)c1` (stereo partly drawn) [Example 1, 3-(2-(2-(2-((7-Nitrobenzo[c][1,2,5]oxadiazol-4-yl)amino)ethoxy)ethoxy)ethoxy)-N-(2-(3-((1-((4aR,8aS)-3-oxooctahydro-2H-pyrido[4,3-b][1,4]oxazine-6-carbonyl)piperidin-4-yl)(phenyl)methyl)phenoxy)ethyl)propanamide], with 1 nM; and `O=C(CCOCCOCCNc1ccc([N+](=O)[O-])c2nonc12)NCCOc1cccc(C(c2ccccc2)C2CCN(C(=O)N3CC[C@@H]4OCC(=O)N[C@@H]4C3)CC2)c1` (stereo partly drawn) [Example 3, 3-(2-(2-((7-Nitrobenzo[c][1,2,5]oxadiazol-4-yl)amino)ethoxy)ethoxy)-N-(2-(3-((1-((4aR,8aS)-3-oxooctahydro-2H-pyrido[4,3-b][1,4]oxazine-6-carbonyl)piperidin-4-yl)(phenyl)methyl)phenoxy)ethyl)propanamide], with 2.1 nM.
For the molecule `CC(C)(C)OC(=O)NCCOCCOCCOCCC(=O)NCCOc1cccc(C(c2ccccc2)C2CCN(C(=O)N3CC[C@@H]4OCC(=O)N[C@@H]4C3)CC2)c1` (single isomer, unassigned) [Example 19, tert-Butyl N-[2-[2-[2-[3-[2-[3-[(S or R)-[1-[(4aR,8aS)-3-oxo-4,4a,5,7,8,8a-hexahydropyrido[4,3-b][1,4]oxazine-6-carbonyl]-4-piperidyl]-phenyl-methyl]phenoxy]ethylamino]-3-oxo-propoxy]ethoxy]ethoxy]ethyl]carbamate], it took 2 nM to reach half-maximal inhibition (IC50).
`NCCOc1cccc(C(c2ccccc2)C2CCN(C(=O)N3CC[C@@H]4OCC(=O)N[C@@H]4C3)CC2)c1` (single isomer, unassigned) [Example 6, (4aR,8aS)-6-[4-[(S or R)-[3-(2-Aminoethoxy)phenyl]-phenyl-methyl]piperidine-1-carbonyl]-4,4a,5,7,8,8a-hexahydropyrido[4,3-b][1,4]oxazin-3-one] gave an IC50 of 5.3 nM.
Regarding `CC(C)(C)OC(=O)NCCOCCC(=O)NCCOc1cccc(C(c2ccccc2)C2CCN(C(=O)N3CC[C@@H]4OCC(=O)N[C@@H]4C3)CC2)c1` (single isomer, unassigned) [Example 14, tert-Butyl N-[2-[3-[2-[3-[(S or R)-[1-[(4aR,8aS)-3-oxo-4,4a,5,7,8,8a-hexahydropyrido[4,3-b][1,4]oxazine-6-carbonyl]-4-piperidyl]-phenyl-methyl]phenoxy]ethylamino]-3-oxo-propoxy]ethyl]carbamate], the IC50 came to 1.3 nM. Compared with the last molecule, the IC50 is about 4.1-fold lower.
As for `O=C1CO[C@H]2CCN(C(=O)N3CCC(=C(c4ccccc4)c4cccc(OCCNc5ccc([N+](=O)[O-])c6nonc56)c4)CC3)C[C@H]2N1` [Example 24], the IC50 came out at 5.5 nM.
Under `O=C(CCOCCNC(=O)CCc1ccc2n1[B-](F)(F)[N+]1=C(c3ccc[nH]3)C=CC1=C2)NCCOc1cccc(C(c2ccccc2)C2CCN(C(=O)N3CC[C@@H]4OCC(=O)N[C@@H]4C3)CC2)c1` (single isomer, unassigned) [Example 21, N-[2-[3-[2-[3-[(S or R)-[1-[(4aR,8aS)-3-oxo-4,4a,5,7,8,8a-hexahydropyrido[4,3-b][1,4]oxazine-6-carbonyl]-4-piperidyl]-phenyl-methyl]phenoxy]ethylamino]-3-oxo-propoxy]ethyl]-3-12,2-difluoro-12-(1H-pyrrol-2-yl)-3-aza-1-azonia-2-boranuidatricyclo[7.3.0.03,7]dodeca-1(12),4,6,8,10-pentaen-4-yl]propanamide] stands 0.3 nM; under `O=C(CCOCCNc1ccc([N+](=O)[O-])c2nonc12)NCCOc1cccc(C(c2ccccc2)C2CCN(C(=O)N3CC[C@@H]4OCC(=O)N[C@@H]4C3)CC2)c1` (some centres unmarked) [Example 2], 1.2 nM; under `CC(C)(C)OC(=O)NCCOCCOCCC(=O)NCCOc1cccc([C@H](c2ccccc2)C2CCN(C(=O)N3CC[C@@H]4OCC(=O)N[C@@H]4C3)CC2)c1` (single isomer, unassigned) [Example 8, tert-Butyl N-[2-[2-[3-[2-[3-[(S or R)-11-1(4aR,8aS)-3-oxo-4,4a,5,7,8,8a-hexahydropyrido[4,3-b][1,4]oxazine-6-carbonyl]-4-piperidyl]-phenyl-methyl]phenoxy]ethylamino]-3-oxo-propoxy]ethoxy]ethyl]carbamate], 1.5 nM.
